Earlier results in patent US20080108586A1, “COMBINATION THERAPY FOR HUMAN IMMUNODEFICIENCY VIRUS INFECTION” (Incyte Corporation, priority 2006, published 2008).

Columns and labels:
[1] = target: human CCR5 (Homo sapiens, UniProt P51681)
[2] = target: rhesus macaque CCR5 (Macaca mulatta, UniProt P61813)

Chain of human CCR5 (P51681 whole entry): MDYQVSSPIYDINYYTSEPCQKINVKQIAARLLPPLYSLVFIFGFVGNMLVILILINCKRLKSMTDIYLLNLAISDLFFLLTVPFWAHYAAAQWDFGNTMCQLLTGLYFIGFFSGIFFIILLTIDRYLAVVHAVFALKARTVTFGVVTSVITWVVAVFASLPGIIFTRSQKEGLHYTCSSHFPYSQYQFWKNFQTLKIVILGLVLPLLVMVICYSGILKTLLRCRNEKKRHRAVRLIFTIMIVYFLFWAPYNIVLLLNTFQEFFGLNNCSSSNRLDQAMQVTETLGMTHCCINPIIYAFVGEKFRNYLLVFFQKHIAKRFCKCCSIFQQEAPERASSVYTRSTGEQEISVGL

inhibition of HIV-1 entry via human CCR5 [1]: inhibits
inhibition of HIV-1 entry via rhesus macaque CCR5 [2]: inhibits
Compound: Cc1ncnc(C)c1C(=O)N1CCC(C)(N2CCN([C@@H](C)c3ccc(C(F)(F)F)cc3)[C@@H](C)C2)CC1 [AD101, (4,6-dimethylpyrimidin-5-yl)(4-methyl-4-((S)-3-methyl-4-((S)-1-(4-(trifluoromethyl)-phenyl)ethyl)piperazin-1-yl)piperidin-1-yl)methanone]
